Results taken from article PMC7597377 (Science signaling, 2020).
Residue numbers refer to the chain shown, from its start.

Assays:
Assay in all cases: competitive radiometric binding vs [3H]E2
[1] = target: T1, ERα LBD (WT-Q, his-tagged) (Homo sapiens, UniProt P03372, Q375H)
T1 sequence (P03372 302-552 Q375H limits assumed): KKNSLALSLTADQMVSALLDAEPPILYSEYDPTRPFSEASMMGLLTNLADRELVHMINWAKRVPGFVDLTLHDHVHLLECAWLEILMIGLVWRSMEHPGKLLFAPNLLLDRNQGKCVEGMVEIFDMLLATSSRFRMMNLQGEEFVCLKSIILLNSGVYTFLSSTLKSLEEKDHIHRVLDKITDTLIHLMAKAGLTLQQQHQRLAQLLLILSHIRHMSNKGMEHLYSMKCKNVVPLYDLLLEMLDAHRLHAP

[2] = target: T2, ERα LBD (WT-Q, his-tagged) (Homo sapiens, UniProt P03372)
T2 sequence (P03372 302-552 limits assumed): T1 sequence (P03372 302-552 Q375H limits assumed) with H74Q

[3] = target: T3, ERα LBD (WT-Q, his-tagged) (Homo sapiens, UniProt P03372, Q375K)
T3 sequence (P03372 302-552 Q375K limits assumed): T1 sequence (P03372 302-552 Q375H limits assumed) with H74K

[4] = target: T4, ERα LBD (WT-Q, his-tagged) (Homo sapiens, UniProt P03372, Q375E)
T4 sequence (P03372 302-552 Q375E limits assumed): T1 sequence (P03372 302-552 Q375H limits assumed) with H74E

[5] = target: T5, ERα LBD (WT-Q, his-tagged) (Homo sapiens, UniProt P03372, Q375L)
T5 sequence (P03372 302-552 Q375L limits assumed): T1 sequence (P03372 302-552 Q375H limits assumed) with H74L

| SMILES | Ki [1] [nM] | Ki [2] [nM] | Ki [3] [nM] | Ki [4] [nM] | Ki [5] [nM] |
| --- | --- | --- | --- | --- | --- |
| C[C@]12C[C@H](CCl)[C@@H]3c4ccc(O)cc4CC[C@H]3[C@@H]1CC[C@@H]2O [CME] | 0.58 ± 0.14 | 0.11 ± 0.04 | 0.41 ± 0.1 | 0.35 ± 0.08 | 0.22 ± 0.05 |
| CC[C@H]1C[C@]2(C)[C@@H](O)CC[C@H]2[C@@H]2CCc3cc(O)ccc3[C@@H]12 [Et-E2] | 0.74 ± 0.04 | 0.13 ± 0.04 | 0.29 ± 0.02 |  | 0.16 ± 0.04 |
| CC[C@H](c1ccc(O)cc1)[C@@H](CC)c1ccc(O)cc1 [Hex] | 0.29 ± 0.07 | 0.06 ± 0.02 | 0.29 ± 0.05 |  | 0.07 ± 0.01 |
